Source: paper PMC12588666 (Therapeutic Drug Monitoring, 2025)

What was measured:
P. mirabilis = assay: Susceptibility of intraoperative culture isolate, P. mirabilis (case 1); format: cell-based, Proteus mirabilis; details: case 1 intraoperative culture
Protocol: (§1) Case 1: A patient (102.5 kg, creatinine clearance of 71 mL/min based on a 6-hour urine collection) developed a polymicrobial implant-associated spinal infection (IASI) after Th9-L3 spondylodesis and laminectomy at Th12. […] Surgical debridement was performed before dalbavancin therapy.
(§2) Intravenous vancomycin and ceftriaxone were initiated to treat S. aureus, P. mirabilis, and E. faecium. S. aureus was susceptible to both agents, P. mirabilis to ceftriaxone, and E. faecium to vancomycin. After 1 week, ceftriaxone was switched to oral ciprofloxacin.

S. aureus [1] = assay: Susceptibility of intraoperative culture isolate, S. aureus (case 1); format: cell-based, Staphylococcus aureus; details: case 1 intraoperative culture
Protocol: as §1, §2

[2] = test system: implant-associated spinal infection (IASI); assay: Clinical outcome and tolerability in patients with implant-associated spinal infection
Protocol: The total duration of the antimicrobial treatment was 12 weeks. Creatinine levels remained stable.
Symptoms resolved within 2.5 hours after 1-mg oral clemastine (antihistamine) and was discharged.

[3] = Dalbavancin plasma concentrations by LC-MS/MS (TDM, case 1); format: in vivo, human
Excerpt: Background: Implant-associated spinal infections (IASI) pose challenges for outpatient management due to the need for frequent intravenous antibiotic administration. […] One patient received therapeutic drug monitoring (TDM)-guided dosing, while the other was managed with fixed-interval dosing. […] Both patients successfully completed therapy without recurrence of the infection during follow-up. […] Further research is required to establish standardized therapeutic drug monitoring protocols for the management of IASI.
The second 1500 mg dose followed on day 8, with TDM on days 22 and 28.

E. faecium [4] = details: Clinical and Laboratory Standards Institute; cited from earlier work
Excerpt: (§3) The Clinical and Laboratory Standards Institute has defined a tentative susceptibility breakpoint o ...

S. aureus [5] = details: in vivo; cited from earlier work
Excerpt: as §3

[6] = long half-life; cited from earlier work
E. faecium [7] = assay: Susceptibility of intraoperative culture isolate, E. faecium (case 1); format: cell-based, Enterococcus faecium; details: case 1 intraoperative culture
Protocol: as §1, §2

Row | Compound | susceptibility of P. mirabilis (P. mirabilis) | susceptibility of S. aureus (S. aureus [1]) | infection recurrence at follow-up ([2]; both patients (case 1 TDM-guided three doses, case 2 fixed-interval four doses of 1500 mg)) | blood, renal, and liver tests ([2]; case 2) | adverse reaction after the final dose ([2]; case 2, 85 kg, 4 off-label 1500-mg doses every 2 weeks without TDM) | severity of reaction ([2]; case 2, possibly due to the infusion) | trough concentration before the third dalbavancin infusion ([3]; case 1, 102.5 kg, CrCl 71 mL/min, after 1500 mg doses on day 1 and day 8, single patient) [mg/L] | peak plasma concentration after the third dalbavancin infusion ([3]; case 1, third 1500-mg dose on day 44, single patient) [mg/L] | tentative susceptibility breakpoint (E. faecium [4]) [mg/L] | trough concentration corresponding to the ƒAUC24/MIC target (S. aureus [5]) [µg/mL] | half-life [6] [h] | susceptibility of E. faecium (E. faecium [7])
1 | CO/N=C(\C(=O)N[C@@H]1C(=O)N2C(C(=O)O)=C(CSc3nc(=O)c(=O)[nH]n3C)CS[C@H]12)c1csc(N)n1 [ceftriaxone] | susceptible | susceptible | – | – | – | – | – | – | – | – | – | –
2 | CN[C@H]1C(=O)N[C@@H]2Cc3ccc(cc3)Oc3cc4cc(c3O[C@@H]3O[C@H](C(=O)O)[C@@H](O)[C@H](O)[C@H]3NC(=O)CCCCCCCCC(C)C)Oc3ccc(cc3Cl)[C@@H](O)[C@@H]3NC(=O)[C@H](NC(=O)[C@@H]4NC(=O)[C@@H](NC2=O)c2cc(cc(O)c2Cl)Oc2cc1ccc2O)c1ccc(O)c(c1)-c1c(O[C@H]2O[C@H](CO)[C@@H](O)[C@H](O)[C@@H]2O)cc(O)cc1[C@@H](C(=O)NCCCN(C)C)NC3=O [dalbavancin] | – | – | without infection recurrence up to 8 months after therapy | remained normal | nausea, vomited once, and had a painful, itchy, erythematous, and swollen face | moderate reaction | 10.3 | 301.8 | 0.25 | ≥ 8 | 147 to 258 | –
3 | CN[C@H](CC(C)C)C(=O)N[C@H]1C(=O)N[C@@H](CC(N)=O)C(=O)N[C@H]2C(=O)N[C@H]3C(=O)N[C@H](C(=O)N[C@H](C(=O)O)c4cc(O)cc(O)c4-c4cc3ccc4O)[C@H](O)c3ccc(c(Cl)c3)Oc3cc2cc(c3O[C@@H]2O[C@H](CO)[C@@H](O)[C@H](O)[C@H]2O[C@H]2C[C@](C)(N)[C@H](O)[C@H](C)O2)Oc2ccc(cc2Cl)[C@H]1O [vancomycin] | – | susceptible | – | – | – | – | – | – | – | – | – | susceptible
